Laboratory results taken from patent publication US20260109715A1, “IMIDAZOPYRIDINE DERIVATIVES WITH BICYCLIC STRUCTURE” (PUBLIC UNIVERSITY CORPORATION YOKOHAMA CITY UNIVERSITY, priority 2022, published 2026).
Where two headings read alike, the source gives them in different places.

How the values were obtained:
[1] = target: human SMG1 enzyme (Homo sapiens, UniProt Q96Q15); test: Measurement of SMG1 kinase activity (ADP-Glo Kinase Assay); type: biochemical; settings: purified human SMG1 enzyme 5 nM, Upf1 peptide substrate, ATP 4 μM; qAC50 synonymous with IC50; read-out: Test Example 1 ADP-Glo IC50
Summary of the method: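 Purified human SMG1 (5 nM) preincubated with compound (1% DMSO) 15 min at room temperature in HEPES pH 7.5 buffer with MnCl2, then reacted 60 min with Upf1 peptide (8 μg/mL) and 4 μM ATP. ADP formed measured by ADP-Glo luminescence; IC50 by 4-parameter logistic fit, normalised to DMSO (0%) and enzyme-free (−100%) wells.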

[2] = system: Snhg1 transcript (NMD target gene) in EMT6 murine breast cancer cell line; test: Measurement of NMD inhibitory activity in cells (increase in Snhg1 transcript, real-time PCR); design: species or system mouse; settings: 6 hours treatment, concentration giving 1/2 of maximum Snhg1 fold change of positive control, read-out: Test Example 2 Cell-based Snhg1 EC50
Summary of the method: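 EMT6 cells treated with serially diluted compound (2% DMSO final) for 6 h; Snhg1 transcript quantified by real-time PCR (ΔΔCT, Tbp endogenous control, untreated wells set to 1). EC50 taken as concentration giving half the maximum fold change of a known NMD inhibitor positive control.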

[3] = system: Snhg1 transcript in tumor tissues of mice subcutaneously implanted with EMT6 murine breast cancer cell line; test: Evaluation of NMD inhibitory activity in vivo (Snhg1 transcript in EMT6 tumor tissue after oral administration); settings: 6 hours after administration, BALB/c mice
Protocol: The NMD inhibitory activity of a compound of the present invention or a pharmaceutically acceptable salt thereof in vivo can be measured, for example, by the method described below. Using mice subcutaneously implanted with EMT6 murine breast cancer cell line, tumor tissues 6 hours after oral administration of a test substance are excised, and the increase in Snhg1 transcript is quantified as an indicator of NMD inhibition in the tumor, in the same manner as in the in vitro method.
In this test, NMD inhibitory activity in tumor tissues was evaluated when a test substance was orally administered to mice subcutaneously implanted with EMT6 murine breast cancer cell line. As an indicator of NMD inhibitory activity, the increase in the transcript of Snhg1, an NMD target gene, was quantified. First, BALB/c mice were subcutaneously implanted with EMT6 cells (ATCC), and engraftment was confirmed 7 days later. Six hours after administration of the test substance, mice were euthanized, and the collected tumor tissues were cryopreserved. RNA was extracted from the tumor tissues using the illustra RNAspin Mini RNA Isolation kit (GE Healthcare Life Sciences). After synthesizing cDNA using the High-Capacity cDNA Reverse Transcription Kits (Applied Biosystems, 4368813), the cDNA was mixed with PrimeTime Gene Expression Master Mix (Integrated DNA Technologies) and various probes, and gene expression was quantified by QuantStudio 6 Flex (Thermo Fisher Scientific Inc.). For the probe for the Snhg1 gene, which is an NMD target, Mm.PT.58.44039547 (FAM) (Integrated DNA Technologies) was used, and for the probe for the Gapdh gene, which is an endogenous control, Mm99999915_g2 (VIC-PL) (Applied Biosystems) was used. The relative quantification of Snhg1 transcripts in each sample was calculated by the ΔΔCT method using Gapdh as an endogenous control, and the expression level of Snhg1 in each test substance administration group was calculated by setting the expression level of the Vehicle group (0.5% methylcellulose administration group) to 1.

Sequence of human SMG1 enzyme (Q96Q15 whole entry): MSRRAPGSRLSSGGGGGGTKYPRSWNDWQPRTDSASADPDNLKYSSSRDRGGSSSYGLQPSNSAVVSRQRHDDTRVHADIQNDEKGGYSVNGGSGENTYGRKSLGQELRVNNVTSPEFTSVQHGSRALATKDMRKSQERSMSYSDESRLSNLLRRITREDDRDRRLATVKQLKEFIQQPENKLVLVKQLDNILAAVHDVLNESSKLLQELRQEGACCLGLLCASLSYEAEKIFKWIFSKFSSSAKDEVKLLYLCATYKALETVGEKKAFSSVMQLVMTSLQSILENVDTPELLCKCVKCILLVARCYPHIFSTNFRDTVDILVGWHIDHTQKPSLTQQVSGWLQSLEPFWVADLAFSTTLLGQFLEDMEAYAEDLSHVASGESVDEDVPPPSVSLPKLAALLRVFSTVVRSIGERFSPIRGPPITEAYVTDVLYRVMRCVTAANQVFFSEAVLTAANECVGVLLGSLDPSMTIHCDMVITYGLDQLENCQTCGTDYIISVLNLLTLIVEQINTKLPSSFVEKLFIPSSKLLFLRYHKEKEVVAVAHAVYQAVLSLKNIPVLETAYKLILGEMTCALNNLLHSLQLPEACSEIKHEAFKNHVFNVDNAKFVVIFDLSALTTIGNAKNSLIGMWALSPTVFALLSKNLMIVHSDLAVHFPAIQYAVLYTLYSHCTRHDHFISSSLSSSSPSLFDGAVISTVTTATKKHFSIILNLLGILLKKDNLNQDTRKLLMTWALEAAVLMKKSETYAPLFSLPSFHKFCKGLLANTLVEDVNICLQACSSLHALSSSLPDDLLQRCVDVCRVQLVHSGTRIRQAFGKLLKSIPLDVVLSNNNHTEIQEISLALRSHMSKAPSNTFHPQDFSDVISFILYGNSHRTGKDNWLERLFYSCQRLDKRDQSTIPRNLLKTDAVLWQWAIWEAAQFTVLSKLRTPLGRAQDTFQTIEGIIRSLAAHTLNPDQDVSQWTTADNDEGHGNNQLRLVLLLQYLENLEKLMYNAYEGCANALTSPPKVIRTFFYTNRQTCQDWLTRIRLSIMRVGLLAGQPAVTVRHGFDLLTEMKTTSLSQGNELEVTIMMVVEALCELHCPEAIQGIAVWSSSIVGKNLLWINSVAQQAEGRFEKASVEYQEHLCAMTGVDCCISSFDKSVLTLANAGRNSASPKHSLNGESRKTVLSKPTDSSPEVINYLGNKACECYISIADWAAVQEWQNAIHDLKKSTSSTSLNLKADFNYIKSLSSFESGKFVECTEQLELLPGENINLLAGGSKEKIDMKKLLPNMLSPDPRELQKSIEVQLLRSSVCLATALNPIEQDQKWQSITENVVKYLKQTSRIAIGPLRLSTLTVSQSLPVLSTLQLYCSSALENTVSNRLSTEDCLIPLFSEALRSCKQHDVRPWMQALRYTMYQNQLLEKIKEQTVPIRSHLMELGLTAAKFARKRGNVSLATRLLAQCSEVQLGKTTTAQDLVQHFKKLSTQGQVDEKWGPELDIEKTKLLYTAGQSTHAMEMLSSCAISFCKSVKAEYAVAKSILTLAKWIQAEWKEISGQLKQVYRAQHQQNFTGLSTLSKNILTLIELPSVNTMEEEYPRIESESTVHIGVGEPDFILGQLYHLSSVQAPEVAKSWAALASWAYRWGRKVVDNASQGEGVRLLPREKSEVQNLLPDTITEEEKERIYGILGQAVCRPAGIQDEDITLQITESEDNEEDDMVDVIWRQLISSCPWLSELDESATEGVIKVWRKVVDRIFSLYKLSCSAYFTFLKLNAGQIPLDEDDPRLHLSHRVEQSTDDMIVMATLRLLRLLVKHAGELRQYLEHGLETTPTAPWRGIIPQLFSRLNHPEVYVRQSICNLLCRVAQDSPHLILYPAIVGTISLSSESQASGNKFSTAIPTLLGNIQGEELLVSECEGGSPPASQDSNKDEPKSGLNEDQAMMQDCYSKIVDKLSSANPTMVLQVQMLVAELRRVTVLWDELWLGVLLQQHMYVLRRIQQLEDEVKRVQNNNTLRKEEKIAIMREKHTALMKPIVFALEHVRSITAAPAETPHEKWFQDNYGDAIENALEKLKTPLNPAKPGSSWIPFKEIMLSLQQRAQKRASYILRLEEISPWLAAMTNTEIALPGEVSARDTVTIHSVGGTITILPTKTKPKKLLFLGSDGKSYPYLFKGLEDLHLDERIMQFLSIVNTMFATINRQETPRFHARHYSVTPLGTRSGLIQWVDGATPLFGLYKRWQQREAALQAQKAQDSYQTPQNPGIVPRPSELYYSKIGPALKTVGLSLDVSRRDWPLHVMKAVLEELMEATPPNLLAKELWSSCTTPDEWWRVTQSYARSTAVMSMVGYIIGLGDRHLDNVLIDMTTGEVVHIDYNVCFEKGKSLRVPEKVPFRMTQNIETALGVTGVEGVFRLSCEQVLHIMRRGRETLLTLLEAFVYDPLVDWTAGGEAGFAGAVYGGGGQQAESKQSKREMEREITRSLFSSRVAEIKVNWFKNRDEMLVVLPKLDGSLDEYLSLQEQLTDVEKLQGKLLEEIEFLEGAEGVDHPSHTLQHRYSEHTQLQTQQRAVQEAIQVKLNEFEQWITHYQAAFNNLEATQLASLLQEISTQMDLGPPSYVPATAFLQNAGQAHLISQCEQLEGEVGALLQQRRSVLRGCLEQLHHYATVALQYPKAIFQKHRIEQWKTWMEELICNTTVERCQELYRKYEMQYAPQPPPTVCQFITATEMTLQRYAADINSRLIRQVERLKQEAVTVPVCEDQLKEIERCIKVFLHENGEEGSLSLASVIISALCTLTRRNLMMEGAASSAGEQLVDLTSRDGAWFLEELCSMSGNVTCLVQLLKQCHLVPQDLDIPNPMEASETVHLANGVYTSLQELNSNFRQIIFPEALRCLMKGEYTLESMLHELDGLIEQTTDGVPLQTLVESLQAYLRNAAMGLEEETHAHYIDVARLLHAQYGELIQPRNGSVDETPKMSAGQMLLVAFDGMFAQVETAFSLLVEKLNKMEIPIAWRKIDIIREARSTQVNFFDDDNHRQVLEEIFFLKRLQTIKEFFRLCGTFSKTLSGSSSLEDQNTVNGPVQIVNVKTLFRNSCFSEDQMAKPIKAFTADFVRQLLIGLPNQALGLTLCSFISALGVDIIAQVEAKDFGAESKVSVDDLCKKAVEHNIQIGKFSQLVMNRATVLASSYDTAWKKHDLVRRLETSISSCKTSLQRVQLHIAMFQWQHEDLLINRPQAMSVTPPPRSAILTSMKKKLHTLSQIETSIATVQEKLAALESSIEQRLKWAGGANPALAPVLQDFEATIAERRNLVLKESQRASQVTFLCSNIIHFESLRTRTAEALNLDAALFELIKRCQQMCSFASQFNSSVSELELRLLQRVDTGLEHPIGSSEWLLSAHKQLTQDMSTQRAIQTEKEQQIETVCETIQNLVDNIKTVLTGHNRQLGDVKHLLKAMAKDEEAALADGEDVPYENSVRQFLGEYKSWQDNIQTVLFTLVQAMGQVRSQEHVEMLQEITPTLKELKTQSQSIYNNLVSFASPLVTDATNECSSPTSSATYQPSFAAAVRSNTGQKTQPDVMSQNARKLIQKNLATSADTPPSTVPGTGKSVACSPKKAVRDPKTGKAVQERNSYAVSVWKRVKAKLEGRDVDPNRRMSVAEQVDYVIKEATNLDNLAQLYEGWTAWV

| IC50 [1] [nM] | EC50 ([2]; Mus musculus) [nM] | Compound | further results |
| --- | --- | --- | --- |
| 1.8 | 36 | C[C@@H](Nc1nc(Cl)cc2[nH]c(-c3cc4c(N5CCC(N(C)C)CC5)nccc4[nH]c3=O)nc12)C(F)(F)F [Example 8, 3-(6-chloro-4-{[(2R)-1,1,1-trifluoropropan-2-yl]amino}-1H-imidazo[4,5-c]pyridin-2-yl)-5-[4-(dimethylamino)piperidin-1-yl]-1,6-naphthyridin-2(1H)-one] | Snhg1 fold change ([3]; 30 mg/kg oral): 4.1 |
| 2.4 | 111 | CC1(C)CC(O)(c2nc(Cl)cc3[nH]c(-c4cc5cnccc5[nH]c4=O)nc23)CCO1 (stereo not shown) [Example 19, 3-[6-chloro-4-(4-hydroxy-2,2-dimethyltetrahydro-2H-pyran-4-yl)-1H-imidazo[4,5-c]pyridin-2-yl]-1,6-naphthyridin-2(1H)-one] | Snhg1 fold change ([3]; 100 mg/kg oral): 7.5 |
| 0.99 | 28 | [2H]C([2H])([2H])Oc1ccccc1-c1nccc2[nH]c(=O)c(-c3nc4c(C)nc(Cl)cc4[nH]3)cc12 [Example 26, 3-(6-chloro-4-methyl-1H-imidazo[4,5-c]pyridin-2-yl)-5-{2-[(^2H3)methyloxy]phenyl}-1,6-naphthyridin-2(1H)-one] | Snhg1 fold change ([3]; 10 mg/kg oral): 12 |
| 2 | 78 | O=c1[nH]c2ccnc(-c3ccccc3Cl)c2cc1-c1nc2cnc(Cl)cc2[nH]1 [Example 28, 3-(6-chloro-1H-imidazo[4,5-c]pyridin-2-y1)-5-(2-chlorophenyl)-1,6-naphthyridin-2(1H)-one] | Snhg1 fold change ([3]; 25 mg/kg oral): 8.8 |
| 2 | 56 | Cc1nc(Cl)cc2[nH]c(-c3cc4c(-c5ccccc5Cl)nccc4[nH]c3=O)nc12 [Example 29, 3-(6-chloro-4-methyl-1H-imidazo[4,5-c]pyridin-2-y1)-5-(2-chlorophenyl)-1,6-naphthyridin-2(1H)-one] | Snhg1 fold change ([3]; 30 mg/kg oral): 4.6 |
| 1.3 | 34 | Cc1nc(Cl)cc2[nH]c(-c3cc4c(-c5c(F)cccc5Cl)nccc4[nH]c3=O)nc12 [Example 31, 5-(2-chloro-6-fluorophenyl)-3-(6-chloro-4-methyl-1H-imidazo[4,5-c]pyridin-2-y1)-1,6-naphthyridin-2(1H)-one] | Snhg1 fold change ([3]; 10 mg/kg oral): 5.5 |
| 2.4 | 77 | Cc1ccccc1-c1nccc2[nH]c(=O)c(-c3nc4cnc(Cl)cc4[nH]3)cc12 [Example 32, 3-(6-chloro-1H-imidazo[4,5-c]pyridin-2-y1)-5-(2-methylpheny1)-1,6-naphthyridin-2(1H)-one] | Snhg1 fold change ([3]; 50 mg/kg oral): 12 |
| 2.2 | 25 | COc1ccccc1-c1nccc2[nH]c(=O)c(-c3nc4cnc(Cl)cc4[nH]3)cc12 [Example 34, 3-(6-chloro-1H-imidazo[4,5-c]pyridin-2-y1)-5-(2-methoxyphenyl)-1,6-naphthyridin-2(1H)-one] | Snhg1 fold change ([3]; 25 mg/kg oral): 6.2 |
| 1.4 | 40 | COc1cccc(F)c1-c1nccc2[nH]c(=O)c(-c3nc4cnc(Cl)cc4[nH]3)cc12 [Example 35, 3-(6-chloro-1H-imidazo[4,5-c]pyridin-2-y1)-5-(2-fluoro-6-methoxyphenyl)-1,6-naphthyridin-2(1H)-one] | Snhg1 fold change ([3]; 10 mg/kg oral): 4.6 |
| 1.2 | 11 | CCc1nc(Cl)cc2[nH]c(-c3cc4c(-c5cc(F)ccc5OC)nccc4[nH]c3=O)nc12 [Example 36, 3-(6-chloro-4-ethyl-1H-imidazo[4,5-c]pyridin-2-yl)-5-(5-fluoro-2-methoxyphenyl)-1,6-naphthyridin-2(1H)-one] | Snhg1 fold change ([3]; 10 mg/kg oral): 7.5 |
| 0.36 | 9.4 | [2H]C([2H])([2H])Oc1ccccc1-c1nccc2[nH]c(=O)c(-c3nc4c(CC)nc(Cl)cc4[nH]3)cc12 [Example 37, 3-(6-chloro-4-ethyl-1H-imidazo[4,5-c]pyridin-2-yl)-5-{2-[(^2H3)methyloxy]phenyl}-1,6-naphthyridin-2(1H)-one] | Snhg1 fold change ([3]; 10 mg/kg oral): 8.4 |
| 1.7 | 10 | [2H]C([2H])([2H])Oc1ccccc1-c1nccc2[nH]c(=O)c(-c3nc4c(C(C)C)nc(Cl)cc4[nH]3)cc12 [Example 38, 3-[6-chloro-4-(propan-2-yl)-1H-imidazo[4,5-c]pyridin-2-yl]-5-{2-[(^2H3)methyloxy]phenyl}-1,6-naphthyridin-2(1H)-one] | Snhg1 fold change ([3]; 30 mg/kg oral): 9.2 |
| 1.2 | 38 | O=C1CCn2cc(cn2)-c2nccc3[nH]c(=O)c(cc23)-c2nc3c(nc(Cl)cc3[nH]2)N2CCCN1CC2 [Example 116, 7-chloro-3,8,10,14,18,19,23,27,34-nonaazaheptacyclo[20.6.2.2^10,14.1^2,5.1^18,21.0^4,9.0^26,30]tetratriacont-1(29),2,4,6,8,19,21(31),22(30),23,25-decaen-15,28-dione] |  |
| 3.4 | 24 | C[C@@H]1C[C@@H](F)CN1c1nc(Cl)cc2[nH]c(-c3cc4c(C5CCOCC5)nccc4[nH]c3=O)nc12 [Example 119, 3-{6-chloro-4-[(2R,4R)-4-fluoro-2-methylpyrrolidin-1-yl]-1H-imidazo[4,5-c]pyridin-2-yl}-5-(tetrahydro-2H-pyran-4-yl)-1,6-naphthyridin-2(1H)-one methanesulfonate] |  |
| 0.96 | 37 | C[C@@H]1C[C@H](O)CN1c1nc(Cl)cc2[nH]c(-c3cc4cnccc4[nH]c3=O)nc12 [Example 120, 3-{6-chloro-4-[(2R,4S)-4-hydroxy-2-methylpyrrolidin-1-yl]-1H-imidazo[4,5-c]pyridin-2-yl}-1,6-naphthyridin-2(1H)-one methanesulfonate] |  |
| 1.4 | 46 | Cc1nccc2[nH]c(=O)c(-c3nc4c(N5C[C@H](O)C[C@H]5C)nc(Cl)cc4[nH]3)cc12 [Example 121, 3-{6-chloro-4-[(2R,4R)-4-hydroxy-2-methylpyrrolidin-1-yl]-1H-imidazo[4,5-c]pyridin-2-yl}-5-methyl-1,6-naphthyridin-2(1H)-one methanesulfonate] |  |
| 2.2 | 28 | CCc1nccc2[nH]c(=O)c(-c3nc4c(N5CC[C@H](O)[C@H]5C)nc(Cl)cc4[nH]3)cc12 [Example 122, 3-{6-chloro-4-[(2R,3S)-3-hydroxy-2-methylpyrrolidin-1-yl]-1H-imidazo[4,5-c]pyridin-2-yl}-5-ethyl-1,6-naphthyridin-2(1H)-one methanesulfonate] |  |
| 1.1 | 18 | CS(=O)(=O)O.[2H]C([2H])([2H])Oc1ccccc1-c1nccc2[nH]c(=O)c(-c3nc4c(N[C@H]5CCOC5)nc(Cl)cc4[nH]3)cc12 [Example 134, 3-{6-chloro-4-[(3S)-tetrahydrofuran-3-ylamino]-1H-imidazo[4,5-c]pyridin-2-yl}-5-(2-[(2H3)methyloxy]phenyl)-1,6-naphthyridin-2(1H)-one methanesulfonate] |  |
| 3.6 | 66 | CCc1nc(Cl)cc2[nH]c(-c3cc4c(-c5ccn(C(F)F)n5)nccc4[nH]c3=O)nc12 [Example 150, 3-(6-chloro-4-ethyl-1H-imidazo[4,5-c]pyridin-2-yl)-5-[1-(difluoromethyl)-1H-pyrazol-3-yl]-1,6-naphthyridin-2(1H)-one methanesulfonate] |  |
| 1.5 | 16 | CCc1nc(Cl)cc2[nH]c(-c3cc4c(-c5cc(C)n(C)n5)nccc4[nH]c3=O)nc12 [Example 151, 3-(6-chloro-4-ethyl-1H-imidazo[4,5-c]pyridin-2-yl)-5-(1,5-dimethyl-1H-pyrazol-3-yl)-1,6-naphthyridin-2(1H)-one methanesulfonate] |  |

| Compound | IC50 [1] [nM] | EC50 ([2]; Mus musculus) [nM] | further results |
| --- | --- | --- | --- |
| 3-(6-chloro-4-methyl-1H-imidazo[4,5-c]pyridin-2-yl)-5-(2-fluoro-6-methoxyphenyl)-1,6-naphthyridin-2(1H)-one methanesulfonate [Example 130] | 1.6 |  | EC50 [2]: 11 nM; Snhg1 fold change ([3]; 10 mg/kg oral): 9.2 |
